Data published in article PMC7821884, “BRAF inhibition protects against hearing loss in mice” (Science Advances, 2020).

Tests used:
[1] = system: Tg(brn3c:GFP) zebrafish larvae neuromast HCs; assay: Zebrafish lateral line neuromast hair cell loss after cisplatin; type: in vivo
Text: Lateral line neuromasts of zebrafish are a well-established model for the study of drug protection from cisplatin or aminoglycoside toxicity because their HCs are considered homologous to mammalian HCs and readily accessible to compounds in vivo ([47]–[49]). As in our previous studies, MI1 (medial neuromast 1) and O1-2 (otic line) neuromasts were examined in Tg(brn3c:GFP) zebrafish larvae 5 days after fertilization ([50], [51]). […] Green fluorescent protein (GFP) (brn3c) and otoferlin staining were used to identify neuromast HCs. In fig.
Zebrafish (D. rerio) experimental larvae of either sex were obtained by pair mating of adult fish maintained at Boys Town National Research Hospital. We used zebrafish line Tg(brn3c:GFP) that expresses a membrane-bound GFP in HCs. Fish were maintained at 28.5°C in E3 media [5 mM NaCl, 0.17 mM KCl, 0.33 mM CaCl2, and 0.33 MgSO4 (pH 7.2)] at a density of 50 embryos/larvae per […] petri dish. Experimental animals were used at 5 days post-fertilization and cryo-anesthetized after treatment and before fixation. Average HC counts in our studies were obtained from the following three neuromasts: MI1 (medial neuromast 1) and O1 and O2 (otic line).

[2] = system: phosphorylated ERK (pERK); assay: pERK immunostaining of cisplatin-treated cochlear explants; type: cell-based, mouse; conditions: 3 μM, 1 hour pretreatment, 10 min 150 μM cisplatin
Text: Tissue samples were then imaged via confocal microscopy.

[3] = system: BRAF, MEK, and ERK phosphorylation; assay: Western blot of cisplatin-induced MAPK phosphorylation in HEI-OC1 cells; conditions: 14, 35, or 75 μM, 1 hour pretreatment, 50 μM cisplatin 1 hour
Method: Whole lysates of HEI-OC1 cells were prepared in lysis buffer (9803, Cell Signaling Technology) after adding protease (cOmplete ULTRA Tablets 05892791001) and phosphatase (PhosSTOP 04906845001) inhibitors (Roche). The lysates were centrifuged for 10 min at 15,000g at 4°C, and the supernatants were collected. Protein concentrations in protein solutions were determined with the BCA protein assay kit (23235, Thermo Fisher Scientific). Forty micrograms of total cell lysate was loaded on 4 to 20% SDS–polyacrylamide gel electrophoresis gels. The following antibodies were used for immunoblot analysis: anti-BRAF (14814S), anti-pBRAF (Ser^445, 2696S), anti-ERK1/2 (4695), anti-pERK1/2 (Thr^202/Tyr^204, 9101S), anti-MEK1/2 (9122S), and anti-pMEK1/2 (Ser^217/221, 41G9S) were obtained from Cell Signaling Technologies and anti–β-actin (C4; SC-47778) was purchased from Santa Cruz. The antibodies were used at dilutions ranging from 1:500 to 1:1000. Anti-mouse (P0447) and anti-rabbit (P0448) secondary antibodies were purchased from Dako Laboratories and diluted 1:5000. National Institutes of Health (NIH) ImageJ software was used to quantify the band intensities and recorded as a ratio to loading control β-actin. Each Western blot series (n) was carried out using cell lysates from separate experiments. Blot intensities were quantified using NIH ImageJ software.

[4] = system: human neuroblastoma and lung carcinoma cell lines; assay: Tumor Cell Titer-Glo viability assay, interference with cisplatin tumor killing (six cell lines); type: cell-based; conditions: compound at 3× protective IC50 (dabrafenib 35 μM, AZD5438 […]) + 15 μM cisplatin (200 μM for A549), 48 hours
Text: In clinical settings, cisplatin is used to treat several tumor types, including neuroblastoma and lung carcinoma. […] Medium-alone–, cisplatin-alone–, and dabrafenib-alone–treated cells were used as controls, and viability was reported as percent survival compared to medium alone (Fig. 4E).
Three human neuroblastoma cell lines IMR-32, SH-SY5Y, and, SK-N-AS, as well as three human lung carcinoma cell lines SHP-77 small cell, H1155 non–small cell, and A549 non–small cell, were used to determine the compounds’ effect on cisplatin’s tumor-killing efficacy ([77]–[83]). Cell lines were purchased from the American Type Culture Collection (ATCC), and cell culture was conducted according to ATCC specifications. Neuroblastoma cell lines IMR-32 and SH-SY5Y are maintained in Dulbecco’s modified Eagle’s medium (DMEM) 1× with glucose (4.5 g/liter), L-glutamine, and sodium pyruvate (10-013-CV, Corning) with 10% fetal bovine serum (FBS) (35011132, Corning) and ampicillin (50 μg/ml; A5354-10ML, Sigma-Aldrich) added. The SK-N-AS cell line is maintained in DMEM 1× with D-glucose (4.5 g/liter), L-glutamine, and 25 mM Hepes (12430-054, Gibco) with 10% FBS, 0.1 mM nonessential amino acids, and ampicillin (50 μg/ml) added. A549 cells are maintained in F-12K medium with L-glutamine (30-2004, ATCC) with 10% FBS and ampicillin (50 μg/ml) added. […]

[5] = system: HEI-OC1 cell line; assay: Caspase-Glo 3/7 activity screen for protection from cisplatin-induced cell death; type: cell-based, mouse; conditions: Mus musculus; HEI-OC1, 50 μM cisplatin, 22 hours
Method: An unbiased screen for compounds protective against cisplatin ototoxicity ([12], [13]) was conducted using the immortalized inner ear cell line HEI-OC1 derived from mouse cochlea ([14]). One hundred sixty-two unique small-molecule kinase-specific inhibitors were screened in dose-response mode for protection from 50 μM cisplatin. A caspase-3/7 activity assay was selected to measure apoptosis using a protocol that quantifies a luminescent product derived from the cleavage of caspase-3/7 substrate (Caspase-Glo 3/7 reagent). One hundred percent luminescence was defined by cells treated with cisplatin alone, and 0% was defined by untreated cells (Fig. 1A, fig. S1, table S1, and dataset in the Supplementary Materials).
In these screens, caspase-3 cleavage was chosen as the end point indicating cisplatin-induced apoptosis, because it allowed the inhibition of cell death to be monitored at the level of any molecular target upstream of caspase-3 cleavage in the HEI-OC1 cell line. Cells were plated at a previously optimized concentration of 1600 cells per well in medium without γ-interferon to limit proliferation and tested against 50 μM cisplatin based on a previous dose–response curve. Tested compounds were dissolved in DMSO before addition to medium with a final DMSO concentration of <0.5%. The screens are described in detail in our previous publications ([12], [13]). […]

Question: For `CC(C)(C)c1nc(-c2cccc(NS(=O)(=O)c3c(F)cccc3F)c2F)c(-c2ccnc(N)n2)s1` [dabrafenib], which “protection from cisplatin-induced neuromast HC loss” value ([1]; 1 hour pretreatment, 6 hours 400 μM cisplatin, dabrafenib 100 nM) is on record?
Answer: significant protection

Question: And the “toxic effect of compound alone on neuromast HCs” value ([1]; all concentrations tested)?
Answer: no toxic effect

Question: What about the “effect on cisplatin-induced ERK phosphorylation in DC and IPhC regions” value [2] of the same compound?
Answer: prevented ERK activation

Question: And the “effect on cisplatin-induced BRAF, MEK, and ERK phosphorylation” value [3]?
Answer: mitigated these changes in a dose-dependent manner

Question: What about the “effect on cisplatin-induced tumor cell death” value [4] of the same compound?
Answer: no inhibitory effect

Question: What about the IC50 [5] of the same compound?
Answer: 13.5 µM
